Results as given in patent publication US11440880B2, “Thalidomide analogs and methods of use” (The USA, as represented by the Secretary, Department of …, priority 2015, dated 2022).

How the values were obtained:
[1] = system: nitrite levels in the culture media; assay: Nitrite level (Griess Reagent System) in LPS-challenged RAW 264.7 cells; assay type: cell-based, mouse; set-up: key: NS=not significant; a “+” sign=anti-inflammatory or increased cell numbers; a “−” sign=cell toxicity or pro-inflammatory; settings: LPS 30 or 60 ng/mL, 24 h
Method: Nitrite levels in the culture media were measured by use of the Griess Reagent System (Promega, Madison, Wis.), following the manufacturer's protocol. The O.D. of unknown samples was read at 520 nm λ, compared to a sodium nitrite standard curve (1.5 μM to 100 μM) and nitrite measured media concentrations expressed as μM units. As the lowest nitrite concentration on the Griess Reagent System standard curve was 1.5 μM, this was chosen as the effective cutoff for defining measurable nitrite concentrations. TNF-α protein levels were measured by use of an ELISA specific for mouse TNF-α protein (BioLegend, San Diego, Calif.) and are expressed as a % change from their appropriate control or as pg/ml.
RAW 264.7 cells obtained from ATCC (Manassas, Va., USA) were grown in DMEM media supplemented with 10% FCS, penicillin 100 μg/ml and streptomycin 100 μg/ml, and maintained at 37° C. and 5% CO2. Cells were seeded in 24 well plates and, 24 hours later, were utilized in studies. One hour prior to the initiation of any study, the seeding media was replaced with fresh media (1 mL), and the cells were allowed to equilibrate at 37° C. and 5% CO2.
RAW 264.7 cells were challenged with LPS (Sigma, St Louis, Mo.: serotype 055:B5) from at a final concentration of 30 or 60 ng/mL. This concentration of LPS in RAW 264.7 cells induces a sub-maximal rise in both TNF-alpha and nitrite levels without a loss in cellular viability. This sub-maximal rise is useful for assessing whether the addition of an experimental drug can either lower or further raise levels of TNF-α and nitrite. Twenty four hours following the addition of LPS, conditioned media was harvested and analyzed for quantification of secreted TNF-α protein and nitrite levels. Fresh media was replaced into the wells and cell viability was then assessed.
Thalidomide and analogs were prepared in tissue culture grade DMSO (Sigma). RAW 264.7 cells were pretreated with thalidomide, analogues or vehicle one hour prior to a challenge with LPS. The effects of various concentrations of thalidomide analogues were assessed. All compounds were synthesized to a chemical purity of >99.5%, as assessed by chemical characterization by a combination of 1H NMR, 13C NMR and GC/MS analyses (Bruker AC-300 spectrometer, together with elemental analyses (Atlantic Microlab, Inc., Norcross, Ga.).

[2] = system: RAW 264.7 cells; assay: Cell viability (CellTiter 96 AQueous One) of LPS-challenged RAW 264.7 cells; assay type: cell-based, mouse; set-up: key: NS=not significant; a “+” sign=anti-inflammatory or increased cell numbers; a “−” sign=cell toxicity or pro-inflammatory
Procedure, shortened: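 RAW 264.7 murine macrophages pretreated 1 h with compound or DMSO vehicle, then challenged with LPS (serotype 055:B5) at 30 or 60 ng/mL final for 24 h. After media replacement, viability measured by tetrazolium (MTS) conversion, absorbance at 490 nm, reported as O.D.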

[3] = system: TNF-α protein; assay: TNF-α protein level (ELISA) in LPS-challenged RAW 264.7 cells; assay type: cell-based, mouse; set-up: key: NS=not significant; a “+” sign=anti-inflammatory or increased cell numbers; a “−” sign=cell toxicity or pro-inflammatory; settings: LPS 30 or 60 ng/mL, 24 h
Procedure, shortened: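 RAW 264.7 cells pretreated 1 h with compound in DMSO vehicle, then challenged with LPS (30 or 60 ng/mL) for 24 h at 37° C. Conditioned-media nitrite by Griess (520 nm, sodium nitrite standard curve, 1.5 μM cutoff) in μM; mouse TNF-α by ELISA as pg/ml or % change from control.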

[4] = system: mpo:GFP zebrafish embryos (neutrophil migration to the wound site); assay: mpo:GFP zebrafish fin-clip neutrophil migration (inflammation) assay; assay type: in vivo; set-up: mpo:GFP inflammation n (survived/tested): concentration or dose not given beside the values; settings: for minimal effective concentration: Danio rerio, Neutrophil, lowest concentration producing an effect, compounds not producing an effect shown at the highest evaluated concentration; for mpo:GFP inflammation n (survived/tested): embryos survived/tested at the concentration given
Text: (§1) Zebrafish embryology: The use of zebrafish embryo (Danio rerio) bioassays as a preclinical model in the classification of novel compounds has increased in recent years due to several factors including; low cost, ease of maintenance, speed of embryonic development, transparency of the embryos and genetic conservation between zebrafish and humans (Howe et al., Nature 2013; 496:498; Therapontos et al., PNAS 2009, 106:8573; Mahony et al., PNAS 2013, 110:12703; Beedie et al., Oncotarget 2016, 7(22):33237; Beedie et al., Mol. Cancer Ther. 2015, 14(10):2228). Two established zebrafish reporter lines were used—the fli1:EGFP line, where the fli1 promoter drives expression of enhanced green fluorescent protein within the developing vasculature (Lawson et al., 2002), and the Tg(mpo::EGFP) line (also known as mpo:GFP), which expresses green fluorescent protein via the neutrophil specific myeloperoxidase promoter (Renshaw et al., Blood 2006, 108:3976). The use of these zebrafish transgenic reporter lines allows for the identification of potential anti-angiogenic and anti-inflammatory compounds respectively, and both have been used previously to successfully classify the action of thalidomide analogs (Therapontos et al., 2009; Mahony et al., 2013; Beedie et al., Oncotarget 2016, 7(22):33237; Beedie et al., Mol. Cancer Ther. 2015, 14(10):2228). Zebrafish embryos were treated with analogs as previously described (Mahony et al., 2013). Briefly, fli1:EGFP embryos were collected and embryos were allowed to develop for 24 hours. Embryos were dechorionated manually and exposed to test compounds or vehicle control for a further 24 hours, imaged and analyzed for intersegmental vessel (ISV) growth. At 24 hours post fertilisation (hpf) the ISVs were ideal to study to visualize and analyze the actions of compounds on angiogenesis. At this time point ISVs were rapidly forming beneath the developing head, over the body and had yet to form in the tail (Lawson and Weinstein, Developmental Biology 2002, 248:307; Therapontos and Vargesson, Developmental Dynamics 2010, 239:2761). Additionally, these sprouts would go on to form the bilateral dorsal longitudinal anastomotic vessels. By treating before this fusion and formation occurs, the effect of each compound on the individual vessels as well as overall patterning structural integrity (Isogai et al., Development 2003, 130:5281) could be determined. Tg(mpo::EGFP) were tail fin clipped as previously detailed (Renshaw et al., 2006; Mahony et al., 2013; Beedie et al., Oncotarget 2016, 7(22):33237; Beedie et al., Mol. Cancer Ther. 2015, 14(10):2228) and incubated with test compounds or vehicle control at 72 hours post fertilization. Fish were imaged at 24 hours and the number of migratory neutrophils present at the wound site were counted. Compounds inducing an at least 50% reduction of neutrophils to the wound site were considered to have anti-inflammatory properties in this system. All larvae were assessed for viability and morphological integrity.
To assess the immunomodulatory effects of the thalidomide analogs, the mpo:gfp transgenic zebrafish line (Renshaw et al., Blood 2006, 108:3976-3978) was utilized because it is an accepted model of inflammation, and can be used to test the effect of anti-inflammatory agents. These embryos express GFP-tagged myeloperoxidase, where green fluorescence marks the neutrophil cells involved in the inflammatory response process, for example following injury, from 72 hours post fertilization (Renshaw et al., 2006; Mahony et al., 2013; Beedie et al., Oncotarget 2016, 7(22):33237). At 72 hpf the dorsal third of the tail fin was removed and the embryos were immersed in the desired compound or vehicle (FIGS. 5A-5C). The embryos were examined for the effect on the inflammatory response quantified as an induction and migration of neutrophils to the wound site 24 hours later.

[5] = system: fli1:EGFP zebrafish embryos (intersegmental vessel growth); assay: fli1:EGFP zebrafish embryo angiogenesis assay; assay type: in vivo; set-up: fli1:EGFP angiogenesis n (survived/tested): concentration or dose not given beside the values; settings: for minimal effective concentration: Danio rerio, lowest concentration producing an effect, compounds not producing an effect shown at the highest evaluated concentration; for fli1:EGFP angiogenesis n (survived/tested): embryos alive after 24 hours of exposure
Text: as §1
To determine if the thalidomide analogs had any effect on angiogenesis, fli1:EGFP embryos (Lawson and Weinstein, Developmental Biology 2002, 248:307-318) were exposed to either vehicle or a compound of interest, over a range of concentrations and over a range of time points starting at 24 hpf. Images were obtained at three time points over 24 hours after exposure to the compounds. The best concentration and time point were selected. CPS49, a compound that is chemically and structurally similar to thalidomide breakdown products, and is tetrafluorinated (which adds stability and bioactivity to the compound) and that causes severe limb defects in chicken embryos, was used as a positive control. The embryos were imaged at 48 hpf (FIGS. 3A3L) and analyzed for both vessel formation and the extent of growth of the vasculature. […]

SMILES | Nitrite ([1]; 30 μM) | Nitrite ([1]; 60 μM) | Nitrite ([1]; 100 μM) | Viability ([2]; 30 μM) | Viability ([2]; 60 μM) | Viability ([2]; 100 μM) | TNF-α ([3]; 30 μM) | TNF-α ([3]; 60 μM) | TNF-α ([3]; 100 μM) | minimal effective concentration [4] [µg/mL] | mpo:GFP inflammation n (survived/tested) [4] | minimal effective concentration [5] [µg/mL] | fli1:EGFP angiogenesis n (survived/tested) [5] | Nitrite ([1]; 1 μM) | Nitrite ([1]; 10 μM) | Viability ([2]; 1 μM) | Viability ([2]; 10 μM) | TNF-α ([3]; 1 μM) | TNF-α ([3]; 10 μM) | concentration at which anti-angiogenic activity was shown ([5]; exposure from 24 hpf, imaged at 48 hpf) [µg/mL]
O=C1c2cccc([N+](=O)[O-])c2C(=O)N1C1CCC(=S)NC1=S (stereo not drawn) [Compound 9, 2-(2,6-Dithioxo-3-piperidinyl)-4-nitro-1H-isoindole-1,3(2H)-dione] | + | + | + | NS | NS | + | NS | NS | NS | 10 | 12/12 | 10 | 14/21 |  |  |  |  |  |  | 
O=C1c2ccccc2CN1c1nc2ccc(C(F)(F)F)cc2s1 [Compound 62] | + |  |  | NS |  |  | NS |  |  | 10 | 6/20 | 10 | 18/20 | NS | NS | NS | NS | NS | NS | 
Nc1cccc2c1CN(C1C3CC4CC(C3)CC1C4)C2=O (stereo not drawn) [Compound 83] | + |  |  | NS |  |  | NS |  |  | 20 | 6/23 | 20 | 3/12 | NS | + | NS | NS | NS | NS | 
FC(F)(F)c1ccc(/N=C2/c3ccccc3CN2c2ccc(C(F)(F)F)cn2)nc1 [Compound 66] | + |  |  | − |  |  | + |  |  | 100 | 6/15 | 100 | 15/15 | NS | NS | − | NS | NS | NS | 
O=C1c2ccccc2CN1C1C2CC3CC(C2)CC1C3 (stereo not drawn) [Compound 72, 2,3-Dihydro-2-(tricyclo[3.3.1.1^3,7]dec-2-yl)-1H-isoindol-1-one] | + |  |  | − |  |  | + |  |  | 10 | 6/15 | 200 | 9/20 | NS | NS | + | NS | + | NS | 
O=C1CCC(N2C(=O)c3cccnc3C2=O)C(=O)N1 (stereo not drawn) [Compound 57] | + |  |  | NS |  |  | NS |  |  | 17 | 8/15 | 8.5 | 8/12 | NS | + | NS | NS | NS | NS | 
O=C1CCC(N2Cc3ccccc3C2=O)C(=O)N1CSC(=S)N1CCCCC1 (stereo not drawn) [Compound 53] |  |  |  | + |  |  | NS |  |  | 10 | 13/19 | 10 | 9/14 |  |  | − | NS | + | + | 
O=C1CCC(N2Cc3ccccc3C2=O)C(=O)N1CN1C(=S)c2ccccc2C1=S (stereo not drawn) [Compound 51] |  |  |  | − |  |  | + |  |  | 1 | 4/11 | 200 | 7/25 |  |  | NS | NS | + | + | 200
